Legend:
[1] = test system: HT-29 cells; experiment: In vitro anti-proliferative activity against HT-29 cells (intracellular ATP content, 72 h); type: cell-based; conditions: Homo sapiens, 72 h after dosing
Description: Biological Example 2. In Vitro Anti-Proliferative Activity of the Compounds of the Present Invention Against HT-29 Cells
(§1) HT-29 cells were seeded on a 384-well plate at 3000 cells/well. After overnight adherence culture, DMSO or the compounds serially 1:5-diluted from 5 μM were added. The viability of the cells was assessed 72 h after dosing by measuring the intracellular ATP content. The inhibition percentages of viable cells by the compounds were calculated by comparing with the DMSO group, and the IC50 values were also calculated.

[2] = test system: HCT116 cells; experiment: In vitro anti-proliferative activity against HCT116 cells (intracellular ATP content, 72 h); type: cell-based; conditions: Homo sapiens, HCT-116, 72 h after dosing
Description: Biological Example 3. In Vitro Anti-Proliferative Activity of the Compounds of the Present Invention Against HCT116 Cells
as §1, with “HCT116” for “HT-29”, “IC 50” for “IC50”

[3] = biological target: T1, Recombinant human KIF18A (1-467His-tagged) protein (Homo sapiens, UniProt Q8NI77); experiment: KIF18A enzyme assay (microtubule-stimulated ATPase activity, ADP-Glo); type: biochemical; conditions: 30 nM KIF18A, 75 μM ATP, 30 μg/mL pig microtubules; read-out: Inhibitory activity against KIF18A IC50
T1 construct: Recombinant human KIF18A (1-467His-tagged) protein; His; made in house
T1 sequence (Q8NI77 1-467): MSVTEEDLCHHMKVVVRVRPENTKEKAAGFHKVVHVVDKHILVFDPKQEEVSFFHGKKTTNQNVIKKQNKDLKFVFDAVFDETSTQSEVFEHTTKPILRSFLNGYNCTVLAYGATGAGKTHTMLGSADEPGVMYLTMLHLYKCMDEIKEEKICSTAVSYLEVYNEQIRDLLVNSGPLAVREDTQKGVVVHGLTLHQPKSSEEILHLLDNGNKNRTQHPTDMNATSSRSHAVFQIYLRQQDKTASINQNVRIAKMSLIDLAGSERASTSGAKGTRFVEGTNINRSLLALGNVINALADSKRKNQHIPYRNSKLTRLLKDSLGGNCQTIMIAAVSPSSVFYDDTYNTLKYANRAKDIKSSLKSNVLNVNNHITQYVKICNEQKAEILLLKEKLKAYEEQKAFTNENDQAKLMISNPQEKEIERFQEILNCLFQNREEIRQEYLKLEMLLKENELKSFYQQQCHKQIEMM
T1 sequence (P02550 whole entry partner): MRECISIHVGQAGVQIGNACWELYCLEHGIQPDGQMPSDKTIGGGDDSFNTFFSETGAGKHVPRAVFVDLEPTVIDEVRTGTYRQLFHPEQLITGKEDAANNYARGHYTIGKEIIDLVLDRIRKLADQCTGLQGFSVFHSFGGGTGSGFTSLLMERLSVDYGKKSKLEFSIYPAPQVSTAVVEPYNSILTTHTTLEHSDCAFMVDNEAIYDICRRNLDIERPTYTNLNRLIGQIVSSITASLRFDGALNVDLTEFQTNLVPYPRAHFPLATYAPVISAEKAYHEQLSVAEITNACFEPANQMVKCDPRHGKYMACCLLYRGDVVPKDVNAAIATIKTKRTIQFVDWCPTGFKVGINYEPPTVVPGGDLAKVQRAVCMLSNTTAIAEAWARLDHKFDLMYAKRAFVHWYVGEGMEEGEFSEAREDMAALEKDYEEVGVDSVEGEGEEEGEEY
T1 sequence (P02554 whole entry partner): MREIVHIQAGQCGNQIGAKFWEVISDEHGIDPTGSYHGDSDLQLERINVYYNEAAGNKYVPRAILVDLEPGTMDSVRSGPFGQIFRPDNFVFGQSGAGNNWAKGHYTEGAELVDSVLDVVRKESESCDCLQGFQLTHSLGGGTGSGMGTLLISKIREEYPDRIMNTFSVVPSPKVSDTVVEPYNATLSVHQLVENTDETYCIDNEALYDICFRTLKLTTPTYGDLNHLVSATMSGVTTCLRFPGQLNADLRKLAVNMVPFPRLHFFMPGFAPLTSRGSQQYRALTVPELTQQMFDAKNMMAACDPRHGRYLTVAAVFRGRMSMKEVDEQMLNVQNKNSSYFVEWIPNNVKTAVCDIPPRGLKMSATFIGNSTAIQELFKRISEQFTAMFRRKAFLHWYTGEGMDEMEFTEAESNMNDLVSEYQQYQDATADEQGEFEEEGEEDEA
In short: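 Buffer 15 mM Tris pH 7.5, 10 mM MgCl2, 0.01% Pluronic F-68, 1 μM paclitaxel, 30 μg/mL pig microtubules; reactions at room temperature. IC50 from inhibition relative to DMSO.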

[4] = test system: Histone H3 Ser10 sites in HT29 cells; experiment: Phosphorylation assay of histone H3 Ser10 sites in HT29 cells (immunofluorescence assay); type: cell-based; conditions: Homo sapiens, HT-29, 6 h after addition, FITC/DAPI ratio
Description: Biological Example 5. Phosphorylation Assay of Histone H3 Ser10 Sites in HT29 Cells (Immunofluorescence Assay)
HT29 cells were seeded in a 96-well plate (Fisher 160376) at 8000 cells/well. The next day, the serially diluted compounds were added. 6 h after the addition of the compounds, the cells were washed once with 1×PBS, immobilized with 4% PFA for 15 min, further washed three times with 1×PBS, and permeabilized with 0.02% Triton-X100 for 10 min. A blocking buffer was then added for blocking for 15-30 min, and 1:3000-diluted primary antibodies (Phospho-Histone H3 (Ser10) (D7N8E) XP® Rabbit mAb #53348) were added. The plate was placed at 4° C. overnight. The next day, the cells were washed three times with 1×PBS, and 1:1000-diluted secondary antibodies (Fluorescein (FITC)-conjugated Affinipure Goat Anti-Rabbit IgG (H+L)) were added. The cells were incubated in the dark for 1-2 h and washed three times with 1×PBS. The nuclei were stained with DAPI, and after the staining was completed, photographs were taken using an MD ImageXpress Pico personal high-content imaging analysis system. The ratio of phosphorylation (FITC/DAPI) at H3 Ser10 sites in HT29 cells was quantified. To evaluate the effects of the compounds on the mitosis phase of HT29 cells, the EC50 values of the compounds were calculated.

[5] = test system: HT29 subcutaneous xenograft tumor; experiment: In vivo pharmacodynamic study, mouse HT29 subcutaneous xenograft tumor model; set-up: species or system BALB/c nude mice; conditions: for Tumor volume on day 1 of treatment / Tumor volume on day 28 of treatment / TGI (tumor growth inhibition): 80 mg/kg intragastric once daily; for Tumor volume on day 1 of treatment: baseline day 1; for TGI (tumor growth inhibition): day 28 vs day 1; for Inhibitory effect on HT29 mouse subcutaneous xenograft tumor (in words): 80 mg/kg, comparison with AMG650
Description: Biological Example 4. In Vivo Pharmacodynamic Study-Mouse HT29 Subcutaneous Xenograft Tumor Model
BALB/c nude mice were inoculated subcutaneously with 5×10^6 HT29 cells on the left dorsal side. After the tumors grew to 100-150 mm^3, the mice were randomly divided into the following groups for intragastric administration once daily: group 1: vehicle control group; group 2: compound 661 (80 mg/kg); group 3: compound 669 (80 mg/kg); group 4: compound 677 (80 mg/kg); group 5: compound 714 (80 mg/kg); group 6: compound 727 (80 mg/kg); group 7: compound 740 (80 mg/kg); and group 8: AMG650 (80 mg/kg). The tumor volume was measured twice weekly and at the end of treatment.

`COc1ccc(C(=O)Nc2ccc(S(=O)(=O)NCCO)cc2N2CCC3(CC2)CC3)nc1N1CCC(F)(F)CC1` [Compound 337] showed an IC50 [1] of 48.8 nM, an IC50 [2] of over 10000 nM and an IC50 [3] of at most 100 nM.

`O=C(Nc1ccc(OCF)c(N2CCC(F)(F)CC2)c1)c1ccc(NS(=O)(=O)CCO)cc1N1CCC2(CC1)CC2` [Compound 385] gave an IC50 [1] of 146 nM, an IC50 [2] of over 10000 nM and an IC50 [3] of at most 100 nM.

`CSc1ccc(NC(=O)c2ccc(NS(=O)(=O)CCO)cc2N2CCC3(CC2)CC3)nc1N1CCC(F)(F)CC1` [Compound 593] gave an IC50 [1] of 97.9 nM, an IC50 [2] of over 10000 nM and an IC50 [3] of at most 100 nM.

Compound `CNc1ccc(NC(=O)c2ccc(NS(=O)(=O)CCO)cc2N2CCC3(CC2)CC3)cc1N1CCC(F)(F)CC1` [Compound 641] has an IC50 [1] of 75.8 nM, an IC50 [2] of over 10000 nM and an EC50 [4] of 21.7 nM.

`CN(C)c1ccc(NC(=O)c2ccc(NS(=O)(=O)CCO)cc2N2CCC3(CC2)CC3)cc1N1CCC(F)(F)CC1` [Compound 645] showed an IC50 [1] of 71.3 nM, an IC50 [2] of over 10000 nM and an EC50 [4] of 69.6 nM.

`COc1ccc(NC(=O)c2ccc(NS(=O)(=O)CCOC(=O)C(C)C)cc2N2CCC3(CC2)CC3)nc1N1CCC(F)(F)CC1` [Compound 663] was tested, and the IC50 [1] was 35 nM, the IC50 [2] was over 10000 nM and the EC50 [4] was 28.3 nM.

In the case of `COc1ccc(C(=O)Nc2ccc(NS(=O)(=O)CCOC(C)=O)cc2N2CCC3(CC2)CC3)nc1N1CCC(F)(F)CC1` [Compound 669], the IC50 [1] is reported as 25.8 nM, the IC50 [2] is reported as over 10000 nM and the “Tumor volume on day 1 of treatment” value [5] is reported as 121 mm^3. For the same compound, the “Tumor volume on day 28 of treatment” value [5] was 1158 mm^3 and the “TGI (tumor growth inhibition)” value [5] was 30%.

With `COc1ccc(NC(=O)c2ccc(S(=O)(=O)NCCOC(C)=O)cc2N2CCC3(CC2)CC3)nc1N1CCC(F)(F)CC1` [Compound 677] the “Tumor volume on day 1 of treatment” value [5] was 121 mm^3, the “Tumor volume on day 28 of treatment” value [5] was 797 mm^3 and the “TGI (tumor growth inhibition)” value [5] was 55%.

Work on `CCOc1ccc(NC(=O)c2ccc(NS(=O)(=O)CCO)cc2N2CCC3(CC2)CC3)nc1N1CCC(F)(F)CC1` [Compound 702] yielded an IC50 [1] of 71.2 nM and an IC50 [2] of over 10000 nM.

`CN(C)c1ccc(C(=O)Nc2ccc(NS(=O)(=O)CCO)cc2N2CCC3(CC2)CC3)cc1N1CCC(F)(F)CC1` [Compound 703] showed an IC50 [1] of 184 nM and an IC50 [2] of over 10000 nM.

`CNc1ccc(C(=O)Nc2ccc(NS(=O)(=O)CCO)cc2N2CCC3(CC2)CC3)cc1N1CCC(F)(F)CC1` [Compound 704] showed an IC50 [1] of 64.2 nM and an IC50 [2] of over 10000 nM.

`CN(C)c1ccc(C(=O)Nc2ccc(NS(=O)(=O)CCO)cc2N2CCC3(CC2)CC3)nc1N1CCC(F)(F)CC1` [Compound 705] was tested, and the IC50 [1] was 146 nM and the IC50 [2] was over 10000 nM.

For `COc1ccc(C(=O)Nc2ccc(NS(=O)(=O)CCOC(=O)[C@@H](N)C(C)C)cc2N2CCC3(CC2)CC3)nc1N1CCC(F)(F)CC1` [Compound 727], the “Tumor volume on day 1 of treatment” value [5] was 121 mm^3, the “Tumor volume on day 28 of treatment” value [5] was 519 mm^3 and the “TGI (tumor growth inhibition)” value [5] was 73%. The “Inhibitory effect on HT29 mouse subcutaneous xenograft tumor (in words)” value [5] was “stronger inhibitory effects”.

For `COc1ccc(NC(=O)c2ccc(S(=O)(=O)NCCOC(=O)[C@@H](N)C(C)C)cc2N2CCC3(CC2)CC3)nc1N1CCC(F)(F)CC1` [Compound 740], the “Tumor volume on day 1 of treatment” value [5] was 121 mm^3, the “Tumor volume on day 28 of treatment” value [5] was 605 mm^3 and the “TGI (tumor growth inhibition)” value [5] was 67%. The “Inhibitory effect on HT29 mouse subcutaneous xenograft tumor (in words)” value [5] was “stronger inhibitory effects”.

In the case of `COc1ccc(NC(=O)c2ccc(NS(=O)(=O)CCO)cc2N2CCC(C)(C(F)(F)F)CC2)nc1N1CCC(F)(F)CC1` [Compound 833], the IC50 [1] is reported as 52.9 nM and the IC50 [2] is reported as over 10000 nM.

With `COc1ccc(NC(=O)c2ccc(NS(=O)(=O)CCO)cc2N2CCC3(CC2)CC3)nc1NCCC(F)(F)F` [Compound 835] the IC50 [1] was 70.7 nM and the IC50 [2] was over 10000 nM.

With `COc1c(C)cc(NC(=O)c2ccc(NS(=O)(=O)CCO)cc2N2CCC3(CC2)CC3)nc1N1CCC(F)(F)CC1` [Compound 836] the IC50 [1] was 253 nM and the IC50 [2] was over 10000 nM.

Reference: patent US20260158017A1, “KIF18A INHIBITOR” (WIGEN BIOMEDICINE TECHNOLOGY (SHANGHAI) CO., LTD., priority 2021, published 2026)
